# What was measured:
# [1] = target: T1, Kinesin-like protein KIF11 (Homo sapiens, UniProt P52732); assay: Inhibition of human recombinant Eg5 ATPase activity expressed in Escherichia coli after 30 mins by malachite green-based spectrophotometric analysis
# T1 sequence (P52732 whole entry): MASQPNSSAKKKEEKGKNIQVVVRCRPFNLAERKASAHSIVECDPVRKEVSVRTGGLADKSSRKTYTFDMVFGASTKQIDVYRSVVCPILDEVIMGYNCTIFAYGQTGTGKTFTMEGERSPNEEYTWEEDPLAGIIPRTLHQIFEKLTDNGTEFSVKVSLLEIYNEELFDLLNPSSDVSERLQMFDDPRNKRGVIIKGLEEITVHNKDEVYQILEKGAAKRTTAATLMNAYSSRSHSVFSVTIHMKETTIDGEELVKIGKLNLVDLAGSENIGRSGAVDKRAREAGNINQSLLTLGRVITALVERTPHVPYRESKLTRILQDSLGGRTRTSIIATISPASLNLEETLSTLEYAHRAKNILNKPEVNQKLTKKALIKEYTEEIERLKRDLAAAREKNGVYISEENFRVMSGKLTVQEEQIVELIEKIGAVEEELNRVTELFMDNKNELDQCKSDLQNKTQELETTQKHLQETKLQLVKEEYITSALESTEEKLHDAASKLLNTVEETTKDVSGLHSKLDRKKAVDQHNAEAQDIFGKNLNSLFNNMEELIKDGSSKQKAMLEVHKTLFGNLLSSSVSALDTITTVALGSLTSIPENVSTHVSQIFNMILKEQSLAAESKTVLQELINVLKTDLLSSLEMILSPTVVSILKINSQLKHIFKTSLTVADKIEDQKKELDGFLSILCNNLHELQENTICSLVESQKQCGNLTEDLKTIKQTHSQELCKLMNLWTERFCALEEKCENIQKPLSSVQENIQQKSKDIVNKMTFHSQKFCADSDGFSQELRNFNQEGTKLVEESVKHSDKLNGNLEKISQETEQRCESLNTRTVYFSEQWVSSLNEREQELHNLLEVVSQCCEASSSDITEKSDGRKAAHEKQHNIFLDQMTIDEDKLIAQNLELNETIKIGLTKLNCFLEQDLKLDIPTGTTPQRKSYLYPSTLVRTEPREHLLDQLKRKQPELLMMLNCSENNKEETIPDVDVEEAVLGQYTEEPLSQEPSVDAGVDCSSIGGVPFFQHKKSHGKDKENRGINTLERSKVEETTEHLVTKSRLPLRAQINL
# [2] = target: T1, Kinesin-like protein KIF11; assay: Inhibition of Eg5 in human HCT116 cells assessed as inhibition of microtubule-induced ATPase activity after 18 hrs; type: cell-based, HCT-116
# [3] = target: T1, Kinesin-like protein KIF11; assay: Inhibition of Eg5 (unknown origin)
# [4] = target: T2, Kinesin-like protein KIF11 (Homo sapiens) (UniProt P52732); assay: Ratio of monastrol IC50 to compound IC50 for Eg5 (unknown origin)
# T2 sequence (whole entry): T1 sequence (P52732 whole entry)
# [5] = target: T1, Kinesin-like protein KIF11; assay: Inhibition of human His-tagged Eg5 (1 to 368 amino acid residues) basal ATPase activity
# clinical = conditions: human, in vivo, iv, 16 mg/day
# Description: Half life in acute myeloid leukemia patient at 16 mg/day administered as infusion for 1 hr on 3 consecutive days measured after 2 weeks
# [6] = Half life in cancer patient at 30 mg, iv administered as infusion for 1 hr on days 1, 8 and 15 measured after 28 days; conditions: human, in vivo
# Homo sapiens [7] = assay: Toxicity in acute myeloid leukemia patient administered as infusion for 1 hr on 3 consecutive days measured after 2 weeks; type: organism-based; conditions: in vivo, iv, 336 h
# Homo sapiens [8] = assay: Toxicity in iv dosed cancer patient administered as infusion for 1 hr on days 1, 8 and 15 measured after 28 days; type: organism-based; conditions: in vivo, 672 h
# [9] = target: T1, Kinesin-like protein KIF11; assay: Inhibition of Eg5 assessed as inhibition of microtubule-induced ATPase activity (unknown origin)
# [10] = target: T1, Kinesin-like protein KIF11; assay: Inhibition of Eg5 basal ATPase activity (unknown origin)
# Homo sapiens [11] = assay: Toxicity in breast cancer patient administered as infusion for 1 hr on day 1 and 15 measured after 28 days; type: organism-based; conditions: in vivo, iv, 672 h
# Homo sapiens [12] = assay: Toxicity in prostate cancer patient administered once every 3 weeks; type: organism-based, Prostate gland; conditions: in vivo, 504 h
# [13] = Half life in solid tumor patient at 7 mg/m2 administered as infusion for 1 hr per week for 3 weeks; type: ADME, organism-based; conditions: human, in vivo, iv
# [14] = Antitumor activity against breast cancer in patients at 12 mg/m2 administered as 1 hr infusion on day 1 and 15 measured after 28 days; type: functional, Homo sapiens, Breast cancer cell
# [15] = Antiproliferative activity against human NCI60 cells
# Homo sapiens [16] = assay: Toxicity in cancer patient administered as infusion for 1 hr every 21 days; type: organism-based; conditions: in vivo, iv
# [17] = target: T1, Kinesin-like protein KIF11; assay: Inhibition of human Eg5 basal ATPase activity
# [18] = target: T1, Kinesin-like protein KIF11; assay: Inhibition of human Eg5 assessed as inhibition of microtubule-induced ATPase activity
structure (smiles),measurement,setting,value
CC1=C(C(=O)Nc2ccc(Cl)cc2)C(c2ccccc2)C2=C(CC(C)(C)CC2=O)N1 (centres undefined),IC50,[1],100 nM
CC(=O)NC1=NN(C(C)=O)C(C)(c2ccccc2)S1 (centres undefined),IC50,[2],1300 nM
O=C1[C@@H]2Cc3c([nH]c4ccccc34)[C@@H](c3cccc(O)c3)N2C(=O)N1Cc1ccccc1,IC50,[3],650 nM
CCC(c1nc2ccccc2n1Cc1ccccc1)N(CCCN(C)C)C(=O)c1ccc(Br)cc1 (centres undefined),IC50,[3],40 nM
O=C(c1ccc(O)cc1)N1CCc2cc3c(cc2C1c1cccc(O)c1)OCO3 (centres undefined),IC50,[1],40 nM
same,Ratio IC50,[4],> 100
Cc1ccc(C(=O)N2CCc3cc4c(cc3C2c2cccc(O)c2)OCO4)cc1 (centres undefined),IC50,[1],60 nM
same,Ratio IC50,[4],> 100
NCCC(=O)N1CCc2cc3c(cc2C1c1cccc(O)c1)OCO3 (centres undefined),IC50,[1],20 nM
same,Ratio IC50,[4],> 100
O=C1CCCC2=C1[C@H](c1cc(O)ccc1Br)NC(=S)N2,IC50,[5],350 nM
O=C1CCCC2=C1[C@H](c1cccc(O)c1)NC(=S)N2,Ratio IC50,[4],10
"Cc1ccc(C(=O)N(CCCN)C(c2nc3snc(C)c3c(=O)n2Cc2ccccc2)C(C)C)cc1 (single isomer, unassigned; (+)) [AZD-4877]",half-life at 336 h,clinical,1020 min
same,half-life at 672 h,[6],960 min
same,MTD,Homo sapiens [7],16 mg/day
same,MTD,Homo sapiens [8],30 mg
CC1(C)CCC[C@]2(C)O[C@H]3CC[C@@]4(C)[C@@H](CC[C@]5(C)[C@@H]4CC[C@]4(C)c6c(OS(=O)(=O)O)ccc(OS(=O)(=O)O)c6C[C@@H]54)[C@]3(C)CC[C@@H]12 [ADOCIASULFATE-2],IC50,[9],5.3 µM
same,IC50,[10],3.5 µM
CON(C)C(=O)N1N=C(c2cc(F)ccc2F)S[C@@]1(CCCN)c1ccccc1 [FILANESIB],IC50,[3],6 nM
Cc1cc2c(C(C)C)c(O)c(O)c(C=O)c2c(O)c1-c1c(C)cc2c(C(C)C)c(O)c(O)c(C=O)c2c1O [GOSSYPOL],IC50,[1],10800 nM
CS(=O)(=O)O.Cc1ccc(C(=O)N(CCCN)[C@@H](c2nc3cc(Cl)ccc3c(=O)n2Cc2ccccc2)C(C)C)cc1 [ISPINESIB MESYLATE],MTD,Homo sapiens [11],12 mg/m2
same,MTD,Homo sapiens [12],18 mg/m2
same,half-life,[13],1980 min
same,Activity,[14],9%
CCOC(=O)C1=C(C)NC(=S)NC1c1cccc(O)c1 (centres undefined) [MONASTROL],IC50,[3],30000 nM
N[C@@H](CSC(c1ccccc1)(c1ccccc1)c1ccccc1)C(=O)O [S-TRITYL-L-CYSTEINE],GI50,[15],1300 nM
Cc1ccc(C(=O)N(CCCN)[C@@H](c2oc3cc(Cl)ccc3c(=O)c2Cc2ccccc2)C(C)C)cc1 [SB-743921],MTD,Homo sapiens [16],4 mg/m2
CC(C)(O)[C@@H]1C[C@@H](O)[C@]2(C)[C@H](CC[C@@]3(C)[C@H]2CC[C@H]2Cc4c([nH]c5ccccc45)[C@@]23C)O1 [TERPENDOLE E],IC50,[17],23 µM
same,IC50,[18],23 µM
